Measured values: US10662151B1, “Process for preparing DTEA HCl” (AMSA, Inc., priority 2017, dated 2020)

Assay: Water solubility of DTEA HCl (pure and crude) at different temperatures
Assay type: physicochemical
Details: FIG. 2
Description: FIG. 2 graphically represents the water solubility of pure DTEA HCl.

What does the source list for `CCCCCCCCCCSCCN.Cl` [DTEA HCl, n-decylthioethylamine HCl]?
solids formation (15 wt % solution in water): forms solids well above RT; solubility in water (at 32° F.): essentially insoluble; solubility in water (at 56° F., no LTS): less than 1 wt %; solubility in water (at 67° F., no LTS): 11 wt %
